Assay results published in ChEMBL document CHEMBL1148906, “Two pyranocoumarins from the seeds of Calophyllum polyanthum” (2004).

Test system: Human alphaherpesvirus 2
Assay: Antiherpetic activity against HSV2 in african green monkey Vero cells assessed as inhibition of virus-induced cytopathic effect
Type: functional
Conditions: Human alphaherpesvirus 2, Vero

| SMILES | GI50 |
| --- | --- |
| CC(C)=CCc1c(O)c2c(c3c1OC(=O)C[C@H]3c1ccccc1)O[C@@H](C)[C@@H](C)C2=O [CALOPOLYANOLIDE D] | > 250 µg/mL |
| CC(C)=CCc1c(O)c2c(c3c1OC(=O)C[C@H]3c1ccccc1)O[C@@H](C)[C@H](C)C2=O [CALOPOLYANOLIDES C] | > 250 µg/mL |
